Measured values from patent US12390435B2, “Electrophiles and electrophile pro-drugs as RAD51 inhibitors” (University of Pittsburgh—Of the Commonwealth System of …, priority 2018, dated 2025).

How the values were obtained:
Assay type in all cases: cell-based
[1] = system: MDA-MB-231 cells; assay: Cell cycle analysis with propidium iodide; details: 5 μM NO2-OA versus DMSO
Experimental: Samples were analyzed at the Flow Cytometry Core at MWRI utilizing a BD LSRII (BD).

[2] = system: MCF-10A cells; assay: RAD51 foci and γH2AX immunofluorescence after 5 Gy IR
Experimental: FIGS. 1A-1K. […] FIG. 1A. […] FIG. 1C. […] EC50 values indicate average+SEM, n=3. FIGS. 1D-1F. […] FIG. 1G. […] FIGS. 1H-1I. […] Merged samples include DAPI stained nuclei (blue). […] The average percentages of cells with 5 or more foci from confocal z-stacked images are indicated from 0 or 5 Gy samples+SEM. FIG. 1J. […] Rad51 foci were counted and γH2AX intensities were assessed by ImageJ in 5Gy irradiated cells (histograms), that were analyzed by immunofluorescence (IF). FIG. 1K, upper part. […] FIG. 1K, lower part. Combination index (CI) was calculated by the Chou-Talalay method. CI<1 is synergistic. Data represent the mean from three independent experiments.
To analyze RAD51 foci formation, 10,000 cells were plated to CultureWell 16-well chambered cover glass (MIDSCI) coated with poly-L-lysine (Sigma) and incubated overnight in 5% FBS media. […] Cells were fixed with 10% formalin for 20 min at 4° C. and immunostained with RAD51 (Santa Cruz) or γH2AX (EMD Biosciences) antibodies. Z-stack images were acquired using a Nikon AIR confocal microscope with 60× oil objective and acquisition performed using NIS elements software. Quantification of z-stacks and foci were completed using ImageJ software.

[3] = system: NF-κB transcriptional activity; assay: NF-κB luciferase reporter; details: MDA-MB-231 and MDA-MB-468 cells, 5 μM 2 hr then TNFα 20 ng/mL 4 hr
Experimental: Luciferase-chemiluminescence-based analysis of NF-κB transcriptional activity was performed. MDA-MB-231 and MDA-MB-468 cells (˜70% confluence) in 12-well plates were transiently transfected with a NF-κB-luciferase reporter plasmid (Stratagene, La Jolla, CA) with Lipofectamine 3000. […] Each transfection was performed in triplicate. Luciferase activity was measured using the Dual-luciferase assay kit (Promega). Relative light units (RLU) were measured using a 96-well plate luminometer, according to the manufacturer's instructions (Victor II, PerkinElmer Life Sciences). Protein concentration was determined using the BCA Assay (Thermo Fisher Scientific). Data represents the ratio of treated samples to controls in the context of mean RLU/protein content, +/−SD. Three individual experiments were done, and statistical significance was determined by Kruskal-Wallis test followed by Dunn's post-test with Bonferroni corrections for multiple comparisons.

[4] = system: Hs578T cells; assay: CellTiter-Glo relative growth (luminescent ATP)
Experimental: (§1) HEK 293T, MDA-MB-231, MDA-MB-468, Hs578T and BT-549 cells (American Type Culture Collection) were cultured at 37° C. with 5% CO2 in Dulbecco's modified Eagle's medium containing (DMEM) (Gibco) supplemented with 5% FBS (HyClone), 100 units/ml penicillin, […] streptomycin (Gibco), non-essential amino acids (Gibco) and 2 mM 1-glutamine (Gibco). Doxorubicin (Selleckchem), cisplatin (Sigma) or olaparib (Selleckchem) were dissolved in DMSO or DMF (cisplatin). […] Pure NO2-OA was diluted in DMSO and added to cells after solvation in assay media. Relative cell numbers were compared by measuring the luminescent signal generated by ATP using the CellTiter-Glo (Promega) assay. Cells were plated in a 96-well plate at 5,000 (MDA-MB-231) or 6,600 (BT549 or Hs578T) cells per well.
(§2) Data represent the mean±SEM from 3 independent experiments unless otherwise noted. A p value<0.05 was considered statistically significant. Non-linear curves were generated in GraphPad Prism 7.0 (GraphPad Software, La Jolla, CA, USA) for statistical analysis. EC50 values and standard error were calculated from three independent experiments utilizing a non-linear dose response variable slope model. Significance was tested by one-way ANOVA for multiple groups with Tukey posttest or by t-test when groups were less than three. RAD51 foci number was analyzed with ImageJ. Nuclear boundaries were individually identified in more than 50 cells per treatment group in three independent experiments.
(§3) The growth of BT-549 cells was not affected. […] MDA-MB-231 cells were plated in a 96 well plate and treated with talazoparib (0.01-75 μM) plus OA-NO2 or NDA-NO2 (0.2-12 μM) daily for 3 days. Growth inhibition (relative cell numbers) of MDA-MB-231 cells was determined by luminescent detection of ATP (CellTiter-Glo) (FIG. 1K).

[5] = system: MDA-MB-231 cells; assay: CellTiter-Glo relative growth (luminescent ATP)
Experimental: as §1, §2, §3

[6] = system: BT-549 cells; assay: CellTiter-Glo relative growth (luminescent ATP)
Experimental: as §1, §2, §3

[7] = system: MDA-MB-231 and MDA-MB-468 cells; assay: Western blot of cell cycle and apoptosis proteins; details: 5 μM, 24 hr
Experimental: (§4) Western blotting was performed. 20-60 μg of total lysates per lane were loaded on 7%, 10%, or 12% SDS-PAGE and transferred onto nitrocellulose or polyvinylidene difluoride membranes (Bio-Rad). The membranes were probed with primary antibodies against caspase-3, multi-drug resistance protein-1 (MRP1), poly [ADP ribose] polymerase-1 (PARP-1), ubiquitin, RelA; cyclin D1, p21, caspase-9, MRP4, IKKβ, pIKKβ, IκBα, or pIκBα (Cell Signaling); caspase-8 (R&D Systems). Samples were normalized to β-actin (Sigma-Aldrich) or GAPDH (Trevigen).

[8] = system: MCF-10A cells; assay: Western blot of cell cycle and apoptosis proteins; details: 5 μM, 24 hr
Experimental: as §4

[9] = cisplatin 72 h plus daily 2 μM NO2-OA
[10] = doxorubicin 72 h plus daily 2 μM NO2-OA
[11] = olaparib 72 h plus daily 2 μM NO2-OA

Structure (SMILES): CCCCCCCCC(=CCCCCCCCC(=O)O)[N+](=O)[O-] [NO2-OA, 10-nitro-octadec-9-enoic acid]
- cell cycle changes [1]: no significant changes to the cell cycle occurred
- RAD51 foci / γH2AX in irradiated benign cells [2]: no effect
- NF-κB-dependent transcription of luciferase [3]: significantly inhibited
- EC50 ([4]; Homo sapiens, Hs-578T, 72 h, read-out: EC50 for growth inhibition): 1.98 ± 0.52 µM
- increased growth inhibition of cisplatin [4, 9]: 3 fold
- enhanced growth inhibition of doxorubicin [4, 10]: 5 fold
- enhanced growth inhibition of olaparib [4, 11]: 17 fold
- Growth inhibition ([5]; 12 or 6.0 μM plus 0.01-75 μM talazoparib, daily for 3 days): ~100%
- EC50 for growth inhibition, compared between compounds ([5]; ATP Celltiter Glo proliferation assay, n=3): higher EC50
- EC50 ([5]; Homo sapiens, MDA-MB-231, 72 h, read-out: EC50 for growth inhibition): 3.66 ± 0.14 µM
- increased growth inhibition of cisplatin [5, 9]: 6 fold
- enhanced growth inhibition of doxorubicin [5, 10]: 7 fold
- enhanced growth inhibition of olaparib [5, 11]: 5 fold
- Combination index (CI), Chou-Talalay ([5]; with talazoparib (0.01-75 μM), 0.2-12 μM, daily 3 days, CI<1 is synergistic): < 1
- EC50 ([6]; Homo sapiens, BT-549, 72 h, read-out: EC50 for growth inhibition): 3.78 ± 0.48 µM
- growth inhibition with cisplatin, suppressed ([6]; cisplatin 72 h plus daily 2 μM NO2-OA, printed as suppressed): 1.4 fold
- enhanced growth inhibition of doxorubicin [6, 10]: not affected
- enhanced growth inhibition of olaparib [6, 11]: 3 fold
- PARP-1 cleavage [7]: promoted caspase-3-mediated cleavage of PARP-1
- caspase-8 and caspase-9 cleavage [7]: increased cleavage of caspase-8 and caspase-9
- p21 and cyclin D1 protein expression [7]: an increase in p21 and a decrease in cyclin D1 protein expression
- PARP-1 cleavage [8]: but not in MCF-10A cells
